From patent US8361962B2, “Tricyclic inhibitors of JAK” (Roche Palo Alto LLC, priority 2009, dated 2013) come the findings set out here.

The target of the experiment is T1, h-jak3 (JAK3: Recombinant human kinase domain) (Homo sapiens, UniProt P52333).
T1 construct: JAK3: Recombinant human kinase domain from Millipore (Cat # 14-629); purchased Millipore 14-629
T1 sequence (P52333 822-1111 limits assumed): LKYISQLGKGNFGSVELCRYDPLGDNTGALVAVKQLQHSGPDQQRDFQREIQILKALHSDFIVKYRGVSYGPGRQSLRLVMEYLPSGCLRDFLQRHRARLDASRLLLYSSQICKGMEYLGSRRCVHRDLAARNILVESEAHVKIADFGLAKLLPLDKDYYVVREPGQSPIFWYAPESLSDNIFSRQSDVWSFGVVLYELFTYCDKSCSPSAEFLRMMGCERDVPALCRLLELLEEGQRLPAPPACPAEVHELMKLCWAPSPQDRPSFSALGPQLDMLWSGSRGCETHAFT
In words: Determination of IC50 of Janus Kinase (JAK) inhibition, radioactive end-point 33P-ATP assay, JAK3. It counts as biochemical. From the text:
Determination of IC50 of Janus Kinase (JAK) Inhibition:
Enzymes and peptide substrate used are described below: • JAK1: Recombinant human kinase domain from Invitrogen (Cat # PV4774) • JAK3: Recombinant human kinase domain from Millipore (Cat # 14-629) • JAK2: Recombinant human kinase domain from Millipore (Cat # 14-640) • Substrate: N-terminally biotinylated 14-mer peptide derived from activation loop of JAK1 with sequence of the peptide substrate: Biotin-KAIETDKEYYTVKD (SEQ ID NO: 1)
Assay conditions used are described below: • Assay Buffer: JAK Kinase Buffer: 50 mM Hepes [pH 7.2], 10 mM MgCl2, 1 mM DTT, 1 mg/ml BSA. The assay is carried out in this buffer. • Assay Format: The kinase activity of all three JAK kinases is measured using a radioactive, end-point assay and with trace amounts of ^33P-ATP. The assays are carried out in 96-well polypropylene plates. Experimental Method:
All concentrations are final in the reaction mixture and all incubations are carried at room temperature. Assay steps are described below: • Compounds are serially diluted in 100% DMSO typically at a 10× starting concentration of 1 mM. Final concentration of DMSO in the reaction is 10%. • Compounds are preincubated with enzyme (0.5 nM JAK3, 1 nM JAK2, 5 nM JAK1) for 10 minutes. • Reactions are initiated by the addition of a cocktail of the two substrates (ATP and peptide premixed in the JAK Kinase Buffer). In the JAK2/JAK3 assays, ATP and the peptide are used at concentrations of 1.5 uM and 50 uM, respectively. JAK1 assay is carried out at an ATP concentration of 10 uM and a peptide concentration of 50 uM. The duration of the assay for JAK2 and JAK3 is 20 minutes. JAK1 assay is carried out for 40 minutes. With all three enzymes, reactions are terminated by the addition of 0.5M EDTA to a final concentration of 100 mM. • 25 ul of terminated reactions are transferred to 150 ul of a 7.5% (v/v) slurry of streptavidin-coated sepharose beads in MgCl2- and CaCl2-free 1× Phosphate Buffered Saline containing 50 mM of EDTA in 96-well, 1.2 um MultiScreen-BV filter plates. After a 30-minute incubation, the beads are washed under vacuum with the following buffers: • 3 to 4 washes with 200 ul of 2M NaCl. • 3 to 4 washes with 200 ul of 2M NaCl plus 1% (v/v) phosphoric acid. • 1 wash with water. • Washed plates are dried in a 60° C. oven for between 1 to 2 hours. • 70 ul of Microscint 20 scintillation fluid is added to each well of filter plates and after at least 30 minutes of incubation, radioactive counts are measured in a Perkin Elmer microplate scintillation counter.
On to `CCS(=O)(=O)N1CC[C@H](C)[C@H](c2ccc3cnc4[nH]ccc4n23)C1` [Compound I-4, 8-((3S,4S)-1-Ethanesulfonyl-4-methyl-piperidin-3-yl)-3H-3,4,8a-triaza-as-indacene], for which the Ki stood at 0.964 nM.
As for `C[C@H]1CCCC[C@H]1c1nnc2cnc3[nH]ccc3n12` [Compound I-6, 1-((1R,2S)-2-Methyl-cyclohexyl)-6H-2,3,5,6,8b-pentaaza-as-indacene], the IC50 turned out to be 69.3 nM and the Ki was determined as 35.5 nM.
Consider `CCS(=O)(=O)N1CCC(C)[C@H](c2ccc3cnc4[nH]ccc4n23)C1` (stereo in doubt) [Compound I-5, 8-((3S,4S)-1-Ethanesulfonyl-4-methyl-piperidin-3-yl)-3H-3,4,8a-triaza-as-indacene], for which the IC50 amounted to 203 nM and the Ki is 119 nM.
For `CCS(=O)(=O)N1CC[C@@H](C)[C@@H](c2nnc3cnc4[nH]ccc4n23)C1` [Compound I-7, 1-((3R,4R)-1-Ethanesulfonyl-4-methyl-piperidin-3-yl)-6H-2,3,5,6,8b-pentaaza-as-indacene], in that order: 231 nM and 103 nM.
`C[C@H]1CCN(C(=O)CC#N)C[C@H]1c1nnc2cnc3[nH]ccc3n12` [Compound I-9, 3-[(3S,4S)-4-Methyl-3-(6H-2,3,5,6,8b-pentaaza-as-indacen-1-yl)-piperidin-1-yl]-3-oxo-propionitrile]: the IC50 was 25 nM and the Ki was 12.8 nM.
For `c1cc2c(ncc3nnc(C4CCCCC4)n32)[nH]1` [Compound I-8, 1-Cyclohexyl-6H-2,3,5,6,8b-pentaaza-as-indacene], in that order: 449 nM and 225 nM.
Take `CC1CCCCN1c1ccc2cnc3[nH]ccc3n12` (centres unmarked) [Compound I-3, 8-(2-Methyl-piperidin-1-yl)-3H-3,4,8a-triaza-as-indacene]: the IC50 turned out to be 39.9 nM and the Ki was found to be 20.5 nM.
Take `c1cc2c(ncc3ccc(C4CCCCC4)n32)[nH]1` [Compound I-2, 8-Cyclohexyl-3H-3,4,8a-triaza-as-indacene]: the IC50 stood at 20.2 nM and the Ki was determined as 10.4 nM.
For `c1cc2c(ncc3cnc(C4CCCCC4)n32)[nH]1` [Compound I-10, 1-Cyclohexyl-6H-2,5,6,8b-tetraaza-as-indacene] the same measures were 93 nM and 47.7 nM.
